Entries after “also recorded” stand apart in the source; their conditions may differ.
Assays:
Type in all cases: cell-based, human
PC-3 cells [1] = assay: Colony formation, crystal violet staining; settings: 12 to 20 days culture, versus ShGPR160-S10 control group (100%)
Protocol: (§1) Based on the above results, PC-3 and LNCaP cells were infected with ShGPR160-S6, ShGPR160-S7, and ShGPR160-S10 for 48 hours, and inoculated into […] at 1000/2 ml/well. After 12 to 20 days of continuous culture, the cells were stained with 0.1% crystal violet solution, dried, and the number of colonies per well counted. The group infected with ShGPR160-S10 virus was set as a 100% control.

LNCaP cells [2] = assay: Colony formation, crystal violet staining; settings: 12 to 20 days culture, versus ShGPR160-S10 control group (100%)
Protocol: as §1

PC-3 cells [3] = assay: CCK-8 proliferation assay; settings: infected 48 hours, cultured 1, 3 and 5 days, Scramble group = 100%
Protocol: (§2) To examine the effect of GPR160-specific SiRNAs on proliferation of prostate cancer cells, PC-3 and LNCaP cells, after infected by virus for 48 hours, were plated in 96-well plates at a density of 5000/100/μl/well and 2500/100 μl/well, respectively, and cultured for 1, 3, and 5 days respectively, 10 μl/well of CCK-8 detection reagent (TaKaRa) was added 4 hours before the end of culture, and light absorption at 450 nm was detected at the end of incubation. The reference wavelength was 650 nm. The reading of Scramble group was set to 100%.

LNCaP cells [4] = assay: CCK-8 proliferation assay; settings: infected 48 hours, cultured 1, 3 and 5 days, Scramble group = 100%
Protocol: as §2

GPR160 gene = assay: Quantitative RT-PCR of GPR160 expression after lentiviral shRNA infection; settings: compared with control virus ShGPR160-S10
Description: The total RNA of each cultured cell was extracted with Trizol reagent (Invitrogen), Oligo-dT was used as primer, and reverse transcriptase was transcribed to generate cDNA. The template and primers were mixed with SYBR detection reagents (TaKaRa) and detected by 7300 Quantitative PCR instrument. The reference gene encodes the β-actin gene ACTB (NC 000007.14).
The lentivirus shRNA expression plasmid (Cat. No. TL312662) was purchased from OriGene, in which the target gene sequence targeted by the GPR160 siRNA is shown in SEQ ID NO: 1, and the sense strand sequence of the siRNA is shown in SEQ ID NO.: 6, SEQ ID NO: 7, SEQ ID NO.: 8, SEQ ID NO: 9, respectively. The sense strand sequence of the non-specific control siRNA is shown in SEQ ID NO: 10.
The siRNA expression plasmid pGFP-C-shGPR160 and the control plasmid pGFP-C-Scramble were extracted with Qiagene plasmid extraction kit and mixed with the packaging plasmid, and then 293T cells that had been inoculated for 24 hours were transfected with MegaTran (OriGene), and the virus supernatant was collected after 72 hours. After centrifugation at 15000 rpm for 15 minutes to remove cell debris, a quarter volume of Lentivirus Concentration (Biomiga) was added for concentration, and was stored at −80° C. in aliquots. Viruses produced by transfection of pGFP-C-shGPR160 plasmid containing the sequences SEQ ID NO: 6 to SEQ ID NO: 9 were labeled as ShGPR160-S6, ShGPR160-S7, ShGPR160-S8, and ShGPR160-S9, respectively. The virus produced by transfection of the non-specific control plasmid was designated ShGPR160-S10.
PC-3 and LNCaP cells were infected with the prepared lentiviruses at multiplicity of infection (MOI) of 40 and 10, respectively. After 72 hours, the total RNA of the infected cells was extracted, and the expression of GPR160 in the cells was detected by quantitative RT-PCR.

[5] = LNCaP cells, MOI 10, 72 hours after infection
[6] = PC-3 cells, MOI 40, 72 hours after infection

Substance: ShGPR160-S6: Lentivirus from pGFP-C-shGPR160 plasmid; siRNA sense strand SEQ ID NO.: 6, 5′-TTGGTACAGGCTATCAGGATAACTTCCTA-3′
- number of clones formed (PC-3 cells [1]): significantly less
- number of clones formed (LNCaP cells [2]): significantly less
- effect on proliferation (PC-3 cells [3]): significantly inhibited
- effect on proliferation (LNCaP cells [4]): significantly inhibited
- inhibitory efficiency on GPR160 expression (GPR160 gene; [5]): 86.2%
- inhibitory efficiency on GPR160 expression (GPR160 gene; [6]): 87.8%

Substance: ShGPR160-S7: Lentivirus from pGFP-C-shGPR160 plasmid; siRNA sense strand SEQ ID NO.: 7, 5′-TTCTATGTCAGCATTCAGAGTTACTGGCT-3′
- number of clones formed (PC-3 cells [1]): significantly less
- number of clones formed (LNCaP cells [2]): significantly less
- effect on proliferation (PC-3 cells [3]): significantly inhibited
- effect on proliferation (LNCaP cells [4]): significantly inhibited
- inhibitory efficiency on GPR160 expression (GPR160 gene; [5]): 91.7%
- inhibitory efficiency on GPR160 expression (GPR160 gene; [6]): 85.0%

Substance: ShGPR160-S8: Lentivirus from pGFP-C-shGPR160 plasmid; siRNA sense strand SEQ ID NO.: 8, 5′-CCATCTACCAAAGCCTGAAGGCACAGAAT-3′
- effect on proliferation (LNCaP cells [4]): no inhibitory effect; also recorded: no significant effect
- inhibitory efficiency on GPR160 expression (GPR160 gene; [5]): 32.8%
- inhibitory efficiency on GPR160 expression (GPR160 gene; [6]): 41.7%

Substance: ShGPR160-S9: Lentivirus from pGFP-C-shGPR160 plasmid; siRNA sense strand SEQ ID NO.: 9, 5′-CCATTTGTCAACTGGAAGTGCTGCTTCAT-3′
- inhibitory efficiency on GPR160 expression (GPR160 gene; [5]): 56.2%
- inhibitory efficiency on GPR160 expression (GPR160 gene; [6]): 41.8%

Source: patent publication US10865415B2, “Prevention, diagnosis and treatment of cancer overexpressing GPR160” (Shanghai Institute of Materia Medica, Chinese Academy of …, priority 2015, dated 2020)
